Results taken from ChEMBL document CHEMBL1159378, “Continuing studies on the cyanobacterium Lyngbya sp.: isolation and structure determination of 15-norlyngbyapeptin A and lyngbyabellin D” (J Nat Prod, 2003).

What follows are molecules tested on KB (assay: Cytotoxicity against human KB cells).
Type: functional, cell-based
`CC[C@H](C)[C@@H](C(=O)N1CCC[C@H]1c1nccs1)N(C)C(=O)[C@H](CC(C)C)N(C)C(=O)[C@H](Cc1ccc(O)cc1)N(C)C(=O)/C=C(\C)OC` [15-NORLYNGBYAPEPTIN A] was tested, and the IC50 was 1300 nM. `CCCC(=O)N[C@@H](C(C)C)[C@H](CC(=O)OC[C@@H](O)c1nc(C(=O)O[C@@H](CCCC(C)(Cl)Cl)[C@@H](C)C(=O)O[C@@H](c2nc(C(=O)OC)cs2)[C@](C)(O)CC)cs1)OC(C)=O` [LYNGBYABELLIN D] was tested, and the IC50 was 100 nM. `CC[C@H](C)[C@@H](C(=O)N1CCC[C@H]1c1nccs1)N(C)C(=O)[C@H](CC(C)C)N(C)C(=O)[C@H](Cc1ccc(OC)cc1)N(C)C(=O)/C=C(\C)OC` [LYNGBYAPEPTIN A] gave an IC50 of over 5000 nM.
